Results as given in the kinase profiling compilation of Christmann-Franck et al. (2016).
One block for each compound: values may come before it.

Tests used:
Test in all cases: radiometric filter-binding kinase assay
AKT2 (human) = AKT2 (human) (UniProt P31751); details: ATP 50 µM
AURKB (human) = AURKB (human) (UniProt Q96GD4); details: ATP 20 µM
BRSK2 (human) = BRSK2 (human) (UniProt Q8IWQ3); details: ATP 50 µM
CDK2 CCNA2 (human) = CDK2 CCNA2 (human) (UniProt P24941+P20248); details: ATP 20 µM
CHEK1 (human) = CHEK1 (human) (UniProt O14757); details: ATP 20 µM
CSK (human) = CSK (human) (UniProt P41240); details: ATP 20 µM
CSNK1D (human) = CSNK1D (human) (UniProt P48730); details: ATP 20 µM
CaMK1 (human) = CaMK1 (human) (UniProt Q14012); details: ATP 50 µM
Chain of CaMK1 (human) (Q14012 whole entry, looked up): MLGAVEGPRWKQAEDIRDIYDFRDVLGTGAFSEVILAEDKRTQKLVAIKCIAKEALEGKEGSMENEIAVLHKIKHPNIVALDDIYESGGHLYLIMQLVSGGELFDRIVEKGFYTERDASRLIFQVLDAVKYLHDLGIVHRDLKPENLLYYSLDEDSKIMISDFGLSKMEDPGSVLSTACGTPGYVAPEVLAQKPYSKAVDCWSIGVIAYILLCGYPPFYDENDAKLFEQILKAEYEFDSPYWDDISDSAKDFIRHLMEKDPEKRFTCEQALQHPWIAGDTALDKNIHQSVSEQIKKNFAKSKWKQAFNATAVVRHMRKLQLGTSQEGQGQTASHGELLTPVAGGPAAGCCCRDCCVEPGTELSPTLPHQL

EEF2K (human) = EEF2K (human) (UniProt O00418); details: ATP 5 µM
HIPK2 (human) = HIPK2 (human) (UniProt Q9H2X6); details: ATP 5 µM
MAPK1 (human) = MAPK1 (human) (UniProt P28482); details: ATP 50 µM
MAPK14 (human) = MAPK14 (human) (UniProt Q16539); details: ATP 50 µM
MAPK8 (human) = MAPK8 (human) (UniProt P45983); details: ATP 20 µM
MARK3 (human) = MARK3 (human) (UniProt P27448); details: ATP 5 µM
MELK (human) = MELK (human) (UniProt Q14680); details: ATP 50 µM
MKNK1 (human) = MKNK1 (human) (UniProt Q9BUB5); details: ATP 50 µM
NEK7 (human) = NEK7 (human) (UniProt Q8TDX7); details: ATP 20 µM
Chain of NEK7 (human) (Q8TDX7 whole entry, looked up): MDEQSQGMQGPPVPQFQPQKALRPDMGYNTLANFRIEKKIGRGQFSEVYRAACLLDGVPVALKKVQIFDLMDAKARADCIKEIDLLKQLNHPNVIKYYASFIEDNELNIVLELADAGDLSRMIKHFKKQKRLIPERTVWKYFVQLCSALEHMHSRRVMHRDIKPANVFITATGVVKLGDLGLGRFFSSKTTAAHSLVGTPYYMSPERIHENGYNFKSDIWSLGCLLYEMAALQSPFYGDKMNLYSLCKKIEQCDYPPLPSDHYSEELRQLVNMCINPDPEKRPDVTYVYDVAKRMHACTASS

PAK4 (human) = PAK4 (human) (UniProt O96013); details: ATP 5 µM
PIM2 (human) = PIM2 (human) (UniProt Q9P1W9); details: ATP 5 µM
Chain of PIM2 (human) (Q9P1W9 whole entry, looked up): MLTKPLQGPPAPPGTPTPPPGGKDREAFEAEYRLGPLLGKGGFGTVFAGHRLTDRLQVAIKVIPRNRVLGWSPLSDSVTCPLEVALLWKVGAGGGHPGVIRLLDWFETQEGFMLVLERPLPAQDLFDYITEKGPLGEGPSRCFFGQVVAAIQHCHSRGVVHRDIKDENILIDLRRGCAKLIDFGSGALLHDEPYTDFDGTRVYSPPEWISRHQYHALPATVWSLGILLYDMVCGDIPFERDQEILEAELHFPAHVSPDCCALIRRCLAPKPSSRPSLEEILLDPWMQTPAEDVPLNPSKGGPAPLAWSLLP

PIM3 (human) = PIM3 (human) (UniProt Q86V86); details: ATP 20 µM
PRKAA1 or PRKAA2 (rat) = details: accession and sequence are those of the human protein
[1] = molecular target: PRKACA or PRKACB or PRKACG (human) (UniProt P22694+P22612+P17612); details: ATP 20 µM
PRKCA (human) = PRKCA (human) (UniProt P17252); details: ATP 20 µM
ROCK2 (human) = ROCK2 (human) (UniProt O75116); details: ATP 20 µM
RPS6KA1 KD1 KD2 (human) = RPS6KA1 KD1 KD2 (human) (UniProt Q15418); details: ATP 50 µM
RPS6KA3 KD1 KD2 (human) = RPS6KA3 KD1 KD2 (human) (UniProt P51812); details: ATP 50 µM
Chain of RPS6KA3 KD1 KD2 (human) (P51812 whole entry, looked up): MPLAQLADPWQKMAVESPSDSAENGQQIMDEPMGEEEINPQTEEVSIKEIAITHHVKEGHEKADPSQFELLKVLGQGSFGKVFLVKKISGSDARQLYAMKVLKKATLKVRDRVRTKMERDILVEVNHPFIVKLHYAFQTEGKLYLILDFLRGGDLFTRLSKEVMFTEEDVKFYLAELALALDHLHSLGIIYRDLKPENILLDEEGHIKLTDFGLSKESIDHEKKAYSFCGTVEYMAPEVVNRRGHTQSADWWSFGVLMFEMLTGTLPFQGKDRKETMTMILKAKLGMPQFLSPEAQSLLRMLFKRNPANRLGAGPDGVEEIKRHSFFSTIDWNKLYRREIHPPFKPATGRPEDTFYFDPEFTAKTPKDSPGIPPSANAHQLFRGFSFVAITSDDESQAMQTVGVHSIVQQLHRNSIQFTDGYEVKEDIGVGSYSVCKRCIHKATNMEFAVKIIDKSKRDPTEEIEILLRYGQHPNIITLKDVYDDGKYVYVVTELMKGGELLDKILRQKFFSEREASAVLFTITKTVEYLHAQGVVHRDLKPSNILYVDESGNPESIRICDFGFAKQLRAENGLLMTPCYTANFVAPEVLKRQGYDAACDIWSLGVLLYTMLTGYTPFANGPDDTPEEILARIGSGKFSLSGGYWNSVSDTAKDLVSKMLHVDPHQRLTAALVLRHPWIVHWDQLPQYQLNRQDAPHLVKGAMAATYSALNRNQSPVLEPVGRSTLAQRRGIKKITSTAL

RPS6KA5 KD1 KD2 (human) = RPS6KA5 KD1 KD2 (human) (UniProt O75582); details: ATP 20 µM
Chain of RPS6KA5 KD1 KD2 (human) (O75582 whole entry, looked up): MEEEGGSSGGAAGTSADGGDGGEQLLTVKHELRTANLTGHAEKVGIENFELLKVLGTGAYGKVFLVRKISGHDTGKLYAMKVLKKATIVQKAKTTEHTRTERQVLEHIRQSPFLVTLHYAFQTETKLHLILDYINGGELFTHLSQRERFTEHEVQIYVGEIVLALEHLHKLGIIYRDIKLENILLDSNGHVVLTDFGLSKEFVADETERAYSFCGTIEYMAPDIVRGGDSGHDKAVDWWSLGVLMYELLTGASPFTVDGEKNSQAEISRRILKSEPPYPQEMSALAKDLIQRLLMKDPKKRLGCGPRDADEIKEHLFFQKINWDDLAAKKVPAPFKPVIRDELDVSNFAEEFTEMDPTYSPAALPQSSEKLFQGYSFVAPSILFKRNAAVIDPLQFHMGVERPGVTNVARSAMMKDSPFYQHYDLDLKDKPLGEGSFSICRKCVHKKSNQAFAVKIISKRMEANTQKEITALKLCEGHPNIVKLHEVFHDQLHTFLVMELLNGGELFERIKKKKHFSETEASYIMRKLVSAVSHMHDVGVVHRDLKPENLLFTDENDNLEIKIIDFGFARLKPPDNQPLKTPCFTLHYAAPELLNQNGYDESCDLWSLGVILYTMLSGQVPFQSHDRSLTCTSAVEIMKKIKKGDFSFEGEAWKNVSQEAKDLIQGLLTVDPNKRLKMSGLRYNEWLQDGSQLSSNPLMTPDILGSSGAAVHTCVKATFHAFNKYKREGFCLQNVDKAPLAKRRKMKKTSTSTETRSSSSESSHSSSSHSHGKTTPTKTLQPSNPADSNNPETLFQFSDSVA

SRC (chicken) = details: ATP 50 µM, accession and sequence are those of the human protein
SRPK1 (human) = SRPK1 (human) (UniProt Q96SB4); details: ATP 50 µM
Chain of SRPK1 (human) (Q96SB4 whole entry, looked up): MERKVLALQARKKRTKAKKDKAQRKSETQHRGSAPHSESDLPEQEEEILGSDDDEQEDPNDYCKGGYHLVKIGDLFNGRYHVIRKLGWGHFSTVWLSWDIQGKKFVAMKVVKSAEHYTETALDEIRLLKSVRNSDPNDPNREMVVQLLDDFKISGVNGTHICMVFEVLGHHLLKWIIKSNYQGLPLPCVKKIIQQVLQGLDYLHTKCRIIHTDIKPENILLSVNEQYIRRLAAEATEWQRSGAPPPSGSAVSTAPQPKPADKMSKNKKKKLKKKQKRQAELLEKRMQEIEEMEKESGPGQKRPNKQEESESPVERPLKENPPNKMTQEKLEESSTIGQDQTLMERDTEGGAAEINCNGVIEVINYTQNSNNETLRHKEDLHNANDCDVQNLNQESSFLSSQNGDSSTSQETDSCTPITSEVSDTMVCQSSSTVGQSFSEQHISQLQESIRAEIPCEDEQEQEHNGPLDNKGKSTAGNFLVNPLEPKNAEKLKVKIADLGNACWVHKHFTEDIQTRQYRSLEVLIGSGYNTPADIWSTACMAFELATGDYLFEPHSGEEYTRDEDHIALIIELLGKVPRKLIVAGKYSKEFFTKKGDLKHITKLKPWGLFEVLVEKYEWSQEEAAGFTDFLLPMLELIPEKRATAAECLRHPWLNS

Chain of AKT2 (human) (P31751 whole entry, looked up): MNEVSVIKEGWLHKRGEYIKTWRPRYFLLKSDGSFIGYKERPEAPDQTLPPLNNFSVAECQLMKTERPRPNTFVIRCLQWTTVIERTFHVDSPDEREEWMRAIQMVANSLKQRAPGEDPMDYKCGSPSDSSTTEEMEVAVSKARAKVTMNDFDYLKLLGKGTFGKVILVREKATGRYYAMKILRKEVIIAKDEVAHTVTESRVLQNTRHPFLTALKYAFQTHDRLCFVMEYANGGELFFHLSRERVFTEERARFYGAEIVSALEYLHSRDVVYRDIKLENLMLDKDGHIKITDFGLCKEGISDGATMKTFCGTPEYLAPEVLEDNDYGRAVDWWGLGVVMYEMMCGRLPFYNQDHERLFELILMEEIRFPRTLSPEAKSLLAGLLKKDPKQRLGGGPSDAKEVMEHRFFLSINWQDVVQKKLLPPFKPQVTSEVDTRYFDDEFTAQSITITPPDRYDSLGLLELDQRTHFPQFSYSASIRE
Chain of AURKB (human) (Q96GD4 whole entry, looked up): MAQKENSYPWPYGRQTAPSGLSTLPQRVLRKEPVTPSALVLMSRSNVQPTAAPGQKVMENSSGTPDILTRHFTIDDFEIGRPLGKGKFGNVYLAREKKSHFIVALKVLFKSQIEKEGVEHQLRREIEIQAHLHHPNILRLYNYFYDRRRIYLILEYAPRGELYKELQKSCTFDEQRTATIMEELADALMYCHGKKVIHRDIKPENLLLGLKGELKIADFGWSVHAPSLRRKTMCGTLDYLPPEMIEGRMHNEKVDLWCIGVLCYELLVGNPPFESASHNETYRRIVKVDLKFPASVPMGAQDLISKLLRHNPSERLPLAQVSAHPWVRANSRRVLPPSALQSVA

SMILES: COC[C@H]1OC(=O)c2coc3c2[C@@]1(C)C1=C(C3=O)[C@@H]2CCC(=O)[C@@]2(C)C[C@H]1OC(C)=O
residual activity (AKT2 (human); compound 1.0 µM): 90% | residual activity (AURKB (human); compound 1.0 µM): 83% | residual activity (BRSK2 (human); compound 1.0 µM): 80% | residual activity (CDK2 CCNA2 (human); compound 1.0 µM): 95% | residual activity (CHEK1 (human); compound 1.0 µM): 87% | residual activity (CSK (human); compound 1.0 µM): 73% | residual activity (CSNK1D (human); compound 1.0 µM): 94% | residual activity (CaMK1 (human); compound 1.0 µM): 97% | residual activity (EEF2K (human); compound 1.0 µM): 97% | residual activity (HIPK2 (human); compound 1.0 µM): 94% | residual activity (MAPK1 (human); compound 1.0 µM): 90% | residual activity (MAPK14 (human); compound 1.0 µM): 117% | residual activity (MAPK8 (human); compound 1.0 µM): 84% | residual activity (MARK3 (human); compound 1.0 µM): 85% | residual activity (MELK (human); compound 1.0 µM): 61% | residual activity (MKNK1 (human); compound 1.0 µM): 81% | residual activity (NEK7 (human); compound 1.0 µM): 100% | residual activity (PAK4 (human); compound 1.0 µM): 90% | residual activity (PIM2 (human); compound 1.0 µM): 83% | residual activity (PIM3 (human); compound 1.0 µM): 86% | residual activity (PRKAA1 or PRKAA2 (rat); compound 1.0 µM): 88% | residual activity ([1]; compound 1.0 µM): 86% | residual activity (PRKCA (human); compound 1.0 µM): 68% | residual activity (ROCK2 (human); compound 1.0 µM): 99% | residual activity (RPS6KA1 KD1 KD2 (human); compound 1.0 µM): 86% | residual activity (RPS6KA3 KD1 KD2 (human); compound 1.0 µM): 90% | residual activity (RPS6KA5 KD1 KD2 (human); compound 1.0 µM): 85% | residual activity (SRC (chicken); compound 1.0 µM): 83% | residual activity (SRPK1 (human); compound 1.0 µM): 73%

residual activity (AKT2 (human); compound 10.0 µM): 98% | residual activity (AURKB (human); compound 10.0 µM): 86% | residual activity (CDK2 CCNA2 (human); compound 10.0 µM): 86% | residual activity (CHEK1 (human); compound 10.0 µM): 83% | residual activity (CaMK1 (human); compound 10.0 µM): 69% | residual activity (EEF2K (human); compound 10.0 µM): 116% | residual activity (HIPK2 (human); compound 10.0 µM): 97% | residual activity (MAPK1 (human); compound 10.0 µM): 68% | residual activity (MAPK14 (human); compound 10.0 µM): 77% | residual activity (MAPK8 (human); compound 10.0 µM): 90% | residual activity (MARK3 (human); compound 10.0 µM): 95% | residual activity (MKNK1 (human); compound 10.0 µM): 78% | residual activity (NEK7 (human); compound 10.0 µM): 97% | residual activity (PAK4 (human); compound 10.0 µM): 94% | residual activity (PIM2 (human); compound 10.0 µM): 101% | residual activity (PIM3 (human); compound 10.0 µM): 63% | residual activity ([1]; compound 10.0 µM): 93% | residual activity (PRKCA (human); compound 10.0 µM): 95% | residual activity (ROCK2 (human); compound 10.0 µM): 81% | residual activity (RPS6KA1 KD1 KD2 (human); compound 10.0 µM): 83% | residual activity (RPS6KA3 KD1 KD2 (human); compound 10.0 µM): 81% | residual activity (RPS6KA5 KD1 KD2 (human); compound 10.0 µM): 85% | residual activity (SRC (chicken); compound 10.0 µM): 84% | residual activity (SRPK1 (human); compound 10.0 µM): 102%
SMILES: N#CC(=C(\N)Sc1ccccc1N)/C(C#N)=C(/N)Sc1ccccc1N

residual activity (AKT2 (human); compound 0.01 µM): 77% | residual activity (AURKB (human); compound 0.01 µM): 59% | residual activity (BRSK2 (human); compound 0.01 µM): 27% | residual activity (CHEK1 (human); compound 0.01 µM): 12% | residual activity (CSK (human); compound 0.01 µM): 80% | residual activity (CSNK1D (human); compound 0.01 µM): 96% | residual activity (CaMK1 (human); compound 0.01 µM): 86% | residual activity (EEF2K (human); compound 0.01 µM): 105% | residual activity (HIPK2 (human); compound 0.01 µM): 109% | residual activity (MAPK14 (human); compound 0.01 µM): 105% | residual activity (MAPK8 (human); compound 0.01 µM): 79% | residual activity (MARK3 (human); compound 0.01 µM): 6% | residual activity (MELK (human); compound 0.01 µM): 53% | residual activity (MKNK1 (human); compound 0.01 µM): 85% | residual activity (NEK7 (human); compound 0.01 µM): 99% | residual activity (PAK4 (human); compound 0.01 µM): 33% | residual activity (PIM2 (human); compound 0.01 µM): 73% | residual activity (PIM3 (human); compound 0.01 µM): 8% | residual activity (PRKAA1 or PRKAA2 (rat); compound 0.01 µM): 9% | residual activity ([1]; compound 0.01 µM): 63% | residual activity (PRKCA (human); compound 0.01 µM): 6% | residual activity (ROCK2 (human); compound 0.01 µM): 86% | residual activity (RPS6KA1 KD1 KD2 (human); compound 0.01 µM): 25% | residual activity (RPS6KA3 KD1 KD2 (human); compound 0.01 µM): 29% | residual activity (RPS6KA5 KD1 KD2 (human); compound 0.01 µM): 68% | residual activity (SRC (chicken); compound 0.01 µM): 76%
SMILES: CN[C@@H]1C[C@@H]2O[C@@](C)([C@@H]1OC)n1c3ccccc3c3c4c(c5c6ccccc6n2c5c31)C(=O)N[C@@H]4O

SMILES: O=S(=O)(NCCNC/C=C/c1ccc(Br)cc1)c1cccc2cnccc12
residual activity (AKT2 (human); compound 1.0 µM): 21% | residual activity (AURKB (human); compound 1.0 µM): 70% | residual activity (BRSK2 (human); compound 1.0 µM): 82% | residual activity (CDK2 CCNA2 (human); compound 1.0 µM): 75% | residual activity (CHEK1 (human); compound 1.0 µM): 71% | residual activity (CSK (human); compound 1.0 µM): 89% | residual activity (CaMK1 (human); compound 1.0 µM): 101% | residual activity (EEF2K (human); compound 1.0 µM): 102% | residual activity (HIPK2 (human); compound 1.0 µM): 101% | residual activity (MAPK1 (human); compound 1.0 µM): 88% | residual activity (MAPK14 (human); compound 1.0 µM): 99% | residual activity (MAPK8 (human); compound 1.0 µM): 88% | residual activity (MELK (human); compound 1.0 µM): 43% | residual activity (MKNK1 (human); compound 1.0 µM): 90% | residual activity (NEK7 (human); compound 1.0 µM): 99% | residual activity (PIM2 (human); compound 1.0 µM): 91% | residual activity (PIM3 (human); compound 1.0 µM): 91% | residual activity (PRKAA1 or PRKAA2 (rat); compound 1.0 µM): 73% | residual activity ([1]; compound 1.0 µM): 15% | residual activity (PRKCA (human); compound 1.0 µM): 80% | residual activity (ROCK2 (human); compound 1.0 µM): 6% | residual activity (RPS6KA1 KD1 KD2 (human); compound 1.0 µM): 36% | residual activity (RPS6KA3 KD1 KD2 (human); compound 1.0 µM): 55% | residual activity (RPS6KA5 KD1 KD2 (human); compound 1.0 µM): 9% | residual activity (SRC (chicken); compound 1.0 µM): 100% | residual activity (SRPK1 (human); compound 1.0 µM): 93%
